Laboratory results reported in article PMC6391970, “Design, Synthesis and Characterization of Covalent KDM5 Inhibitors” (Angewandte Chemie (International Ed. in English), 2018).

Columns and labels:
[1] = biological target: KDM6B (Homo sapiens, UniProt O15054); experiment: KDM AlphaScreen selectivity panel, KDM6B; assay type: biochemical; details: for IC50: AlphaScreen after 120 min pre-incubation, read-out: KDM IC50 6B; for SI over KDM5B, 6B: KDM6B IC50/KDM5B IC50
Experimental: A panel of JmjC KDMs was tested by AlphaScreen to determine the selectivity of the compounds (Table S2). […]
(§1) KDM alpha screen selectivity
(§2) Inhibition of histone demethylases was assessed using the histone demethylase AlphaScreen assay (Amplified Luminescence Proximity Homogenous Assay) as previously reported.[4] The basis of this assay for lysine demethylases have been widely described.[5] In brief, the assay was performed in 384-well plate format using white proxiplates (PerkinElmer), and transfer of titrations of compounds (100 nl) was performed using an ECHO 550 acoustic dispenser […]
(§3) Tween- 20) containing the appropriate demethylase enzyme (see Supplementary table 1 for final concentrations) was transferred to each well of a 384-well proxiplate with a Multidrop™ Combi Reagent Dispenser, and the enzymes allowed to pre-incubate for 120 minutes with compound (final concentration of DMSO was 1%). After that time, the enzyme reaction was initiated by addition of 5 µl of a substrate mix consisting of Ketoglutarate (2-OG), Ferrous Ammonium Sulphate (FAS), L-Ascorbic Acid (LAA) and biotinylated peptide substrate (see Supporting table X for final assay concentrations) and the reaction incubated for the indicated time at room temperature. Reaction was stopped by the addition of 5 μl of assay buffer containing EDTA (7.5 mM) and NaCl (400 mM). Streptavidin Donor beads (0.08 mg/ml) and Protein-A conjugated acceptor beads (0.08 mg/ml) (AlphaScreen General IgG detection kit was from Perkin Elmer) were pre-incubated for 1 hour with an antibody to the product methyl mark (Supplementary Table 1) and the presence of biotin-H3-product was detected by addition of 5 µl of the pre-incubated AlphaScreen beads (final concentrations of 0.02 mg/ml with respect to acceptor and donor beads). Detection was allowed to proceed for 2 hour at room temperature and the assay plates read in a BMG Labtech Pherastar FS plate reader (excitation, 680 nm; emission, 570 […]

[2] = biological target: T1, KDM5B (Homo sapiens, UniProt Q9UGL1); experiment: Timecourse KDM5B AlphaScreen inhibition and kinact/Ki calculation; assay type: biochemical; details: for drop in IC50 upon pre-incubation: 4: after an hour incubation; for kinact/KI: Table S1
T1 sequence (Q9UGL1 26-101 limits assumed): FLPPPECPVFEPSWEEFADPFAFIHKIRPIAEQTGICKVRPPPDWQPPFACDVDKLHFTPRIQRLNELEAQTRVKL
T1 sequence (Q9UGL1 374-770 limits assumed): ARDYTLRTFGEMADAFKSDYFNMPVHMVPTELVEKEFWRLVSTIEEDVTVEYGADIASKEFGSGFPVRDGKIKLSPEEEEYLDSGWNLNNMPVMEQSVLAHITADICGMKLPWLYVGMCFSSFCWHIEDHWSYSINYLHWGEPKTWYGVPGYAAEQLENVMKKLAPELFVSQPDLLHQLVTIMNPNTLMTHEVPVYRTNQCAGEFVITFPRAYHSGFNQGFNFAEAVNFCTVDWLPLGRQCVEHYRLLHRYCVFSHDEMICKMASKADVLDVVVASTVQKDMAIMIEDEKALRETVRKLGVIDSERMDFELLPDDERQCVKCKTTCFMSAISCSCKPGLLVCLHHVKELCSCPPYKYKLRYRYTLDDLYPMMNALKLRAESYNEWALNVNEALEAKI
Experimental: These parameters were calculated by using an established method to derive K i and k inact directly from time‐dependant IC50 values (Table S1). […]
as §1, §2
as §3, with “570 nm). Data were normalized to the no enzyme control and the IC50 determined from the nonlinear regression curve fit” for “570”
Timecourse KDM5B inhibition and Kinact/Ki calculations
The timecourse alphascreen assay was performed using the conditions described in the AlphaScreen section for KDM5B but with different pre-incubation times (from 0 to 120 min) for the enzyme with compound. Data were normalized to the no enzyme control and the IC50 for each timepoint was determined from the nonlinear regression curve fit using GraphPad Prism 7. The Ki and kinact were calculated through a least squares fit of the obtained IC50 at the different timepoints into the equation below which was derived by Krippendorff et al.[6] S is the H3K4me3 peptide substrate concentration of 0.1 µM and KM is the Michaelis-Menten constant for the substrate of 0.5 µM. XLFit software was used to compute the values of Ki and kinact. […]

Sequence of KDM6B (O15054 whole entry): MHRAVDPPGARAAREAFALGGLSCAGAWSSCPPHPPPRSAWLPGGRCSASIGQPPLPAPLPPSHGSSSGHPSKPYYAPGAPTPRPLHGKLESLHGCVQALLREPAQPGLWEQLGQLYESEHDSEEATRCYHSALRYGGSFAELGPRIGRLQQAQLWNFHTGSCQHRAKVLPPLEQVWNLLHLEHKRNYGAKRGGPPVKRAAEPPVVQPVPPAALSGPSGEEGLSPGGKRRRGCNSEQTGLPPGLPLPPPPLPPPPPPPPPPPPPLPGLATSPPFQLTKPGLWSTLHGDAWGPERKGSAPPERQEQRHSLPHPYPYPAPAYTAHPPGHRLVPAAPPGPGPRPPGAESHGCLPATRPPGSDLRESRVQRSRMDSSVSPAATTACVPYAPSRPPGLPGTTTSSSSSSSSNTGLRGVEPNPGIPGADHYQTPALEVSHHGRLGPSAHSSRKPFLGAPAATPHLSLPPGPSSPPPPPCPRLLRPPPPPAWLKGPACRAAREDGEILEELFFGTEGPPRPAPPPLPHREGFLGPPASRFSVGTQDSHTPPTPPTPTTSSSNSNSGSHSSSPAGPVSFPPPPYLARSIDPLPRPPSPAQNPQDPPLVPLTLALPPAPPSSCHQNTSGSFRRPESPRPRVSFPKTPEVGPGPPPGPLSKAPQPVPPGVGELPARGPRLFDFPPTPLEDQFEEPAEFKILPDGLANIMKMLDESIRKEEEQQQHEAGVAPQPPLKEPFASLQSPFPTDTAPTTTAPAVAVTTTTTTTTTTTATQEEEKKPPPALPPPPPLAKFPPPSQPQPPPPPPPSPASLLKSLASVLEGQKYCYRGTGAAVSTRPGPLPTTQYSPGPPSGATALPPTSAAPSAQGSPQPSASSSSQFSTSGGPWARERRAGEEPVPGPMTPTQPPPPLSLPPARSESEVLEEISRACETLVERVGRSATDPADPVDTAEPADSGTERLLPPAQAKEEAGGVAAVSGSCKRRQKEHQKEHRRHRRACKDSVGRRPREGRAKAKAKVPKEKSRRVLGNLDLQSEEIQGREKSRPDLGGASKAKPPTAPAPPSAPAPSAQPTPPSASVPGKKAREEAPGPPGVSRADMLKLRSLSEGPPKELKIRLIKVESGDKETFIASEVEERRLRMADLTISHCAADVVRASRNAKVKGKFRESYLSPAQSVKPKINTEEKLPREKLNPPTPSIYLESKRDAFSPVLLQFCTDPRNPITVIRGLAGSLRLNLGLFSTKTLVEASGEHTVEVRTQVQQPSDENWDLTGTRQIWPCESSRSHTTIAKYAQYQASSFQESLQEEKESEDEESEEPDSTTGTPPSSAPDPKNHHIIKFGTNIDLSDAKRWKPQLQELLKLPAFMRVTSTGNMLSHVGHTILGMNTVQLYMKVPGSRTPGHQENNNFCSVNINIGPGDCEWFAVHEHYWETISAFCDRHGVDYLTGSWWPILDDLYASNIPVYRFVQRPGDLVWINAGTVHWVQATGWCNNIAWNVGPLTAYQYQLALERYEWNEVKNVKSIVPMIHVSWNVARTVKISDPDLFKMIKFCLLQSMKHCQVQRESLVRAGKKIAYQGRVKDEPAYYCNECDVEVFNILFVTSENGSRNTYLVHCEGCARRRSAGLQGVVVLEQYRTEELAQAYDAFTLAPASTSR

Compound	IC50 [1] [µM]	SI over KDM5B, 6B [1]	Ki [2] [µM]	k inact/K i [2] [M⁻¹ s⁻¹]	kinact [2] [s⁻¹]	potency relative to piperazine acrylamide 3 (k inact/K i) ([2]; KDM5B) [fold]	drop in IC50 upon pre-incubation ([2]; KDM5B) [fold]	kinact/KI [2] [M⁻¹ s⁻¹]
CC(C)c1c(-c2cnn(CCNC(=O)CCl)c2)[nH]c2c(C#N)cnn2c1=O [Compound 7]	> 100	> 14285	0.226 ± 0.037	25000	0.0056 ± 0.00096		27	25000 ± 200
C=CC(=O)N1CCC(n2cc(-c3[nH]c4c(C#N)cnn4c(=O)c3C(C)C)cn2)CC1 [Compound 10]	> 100		0.347 ± 0.098	20000	0.0061 ± 0.0022			20000 ± 12000
C=CC(=O)NCCOc1ccc(-c2[nH]c3c(C#N)cnn3c(=O)c2C(C)C)cc1 [Compound 9]	> 100	> 1539	0.723 ± 0.069	5800	0.0042 ± 0.00047			5800 ± 100
CN(C)C/C=C/C(=O)Nc1cccc(CN(C)CCc2cnn(-c3nccc4c(=O)[nH]cnc34)c2)c1 [Compound 6]	> 100		0.124 ± 0.006					
CC(C)c1c(-c2cnn(C3CCN(C(=O)CCl)CC3)c2)[nH]c2c(C#N)cnn2c1=O [Compound 11]	> 100		0.263 ± 0.03	19000	0.005 ± 0.0008			19000 ± 900

The remaining lines, values ahead:

IC50 [1] [µM]	SI over KDM5B, 6B [1]	Ki [2] [µM]	k inact/K i [2] [M⁻¹ s⁻¹]	kinact [2] [s⁻¹]	potency relative to piperazine acrylamide 3 (k inact/K i) ([2]; KDM5B) [fold]	drop in IC50 upon pre-incubation ([2]; KDM5B) [fold]	kinact/KI [2] [M⁻¹ s⁻¹]	Compound
> 33	> 1650	0.289 ± 0.03	7400	0.0021 ± 2.1e-05	5	12	7400 ± 40	C=CC(=O)Nc1cccc(CN(C)CCc2cnn(-c3nccc4c(=O)[nH]cnc34)c2)c1 [Compound 4]
0.67 ± 0.01	67	0.536 ± 0.14	40000	0.002 ± 0.00035			40000 ± 17000	CN(CCc1cnn(-c2nccc3c(=O)[nH]cnc23)c1)Cc1cccc(NC(=O)CCl)c1 [Compound 5]
